How the values were obtained:
MAO-B = target: T1, MAO-B (Rattus norvegicus, UniProt P19643); experiment: Monoamine oxidase-B (MAO-B) inhibition assay; type: biochemical; conditions: for IC50: Table II; for Ratio A/B: ratio of MAO-A IC50 to MAO-B IC50
T1 construct: Both Forms of Monoamine Oxidase in the Rat Brain; from tissue
T1 sequence (P19643 1-520): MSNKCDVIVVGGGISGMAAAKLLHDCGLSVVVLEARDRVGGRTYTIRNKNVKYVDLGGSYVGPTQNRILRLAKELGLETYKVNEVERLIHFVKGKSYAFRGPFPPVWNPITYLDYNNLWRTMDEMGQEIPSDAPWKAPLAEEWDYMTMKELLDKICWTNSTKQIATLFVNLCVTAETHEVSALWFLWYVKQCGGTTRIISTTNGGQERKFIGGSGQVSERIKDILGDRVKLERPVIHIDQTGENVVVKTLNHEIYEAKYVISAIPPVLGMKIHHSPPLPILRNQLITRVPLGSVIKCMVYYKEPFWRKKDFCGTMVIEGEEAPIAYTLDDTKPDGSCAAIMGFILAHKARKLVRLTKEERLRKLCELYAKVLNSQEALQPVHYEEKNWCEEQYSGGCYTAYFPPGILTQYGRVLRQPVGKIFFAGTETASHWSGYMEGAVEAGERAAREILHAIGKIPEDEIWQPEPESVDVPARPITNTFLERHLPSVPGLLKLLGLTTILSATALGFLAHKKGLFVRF

MAO-A = target: T2, MAO-A (Rattus norvegicus, UniProt P21396); experiment: Monoamine oxidase-A (MAO-A) inhibition assay; type: biochemical; conditions: Table II
T2 construct: Both Forms of Monoamine Oxidase in the Rat Brain; from tissue
T2 sequence (P21396 1-526): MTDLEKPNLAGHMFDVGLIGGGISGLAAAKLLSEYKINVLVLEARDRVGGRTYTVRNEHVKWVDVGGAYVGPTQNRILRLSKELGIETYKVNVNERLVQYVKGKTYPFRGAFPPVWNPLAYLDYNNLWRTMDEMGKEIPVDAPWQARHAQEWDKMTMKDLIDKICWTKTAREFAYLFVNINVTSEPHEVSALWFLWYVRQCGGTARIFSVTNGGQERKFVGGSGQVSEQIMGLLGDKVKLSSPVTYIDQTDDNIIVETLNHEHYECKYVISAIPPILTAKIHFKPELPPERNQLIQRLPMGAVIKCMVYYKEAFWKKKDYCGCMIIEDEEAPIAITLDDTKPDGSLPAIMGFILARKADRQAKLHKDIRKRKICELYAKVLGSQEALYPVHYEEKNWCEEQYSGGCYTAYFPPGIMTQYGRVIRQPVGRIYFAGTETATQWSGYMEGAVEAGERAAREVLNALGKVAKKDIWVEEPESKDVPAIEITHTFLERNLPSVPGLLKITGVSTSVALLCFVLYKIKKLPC

AMPT test (ED50) = type: in vivo; conditions: Table II; method not described

SMILES	IC50 (MAO-B) [µM]	Ratio A/B (MAO-B)	IC50 (MAO-A) [µM]	ED50 (AMPT test (ED50)) [mg/kg]
O=C1NC(=O)C(=Cc2cccc(OCc3ccccc3)c2)S1 [Example 1, 5-[3-(Phenylmethoxy)phenylmethyl-ene]-2,4-thiazolidinedione]	100	1	100	
N#CCCCCN1C(=O)SC(=Cc2cccc(OCc3ccccc3)c2)C1=O [Example 3]	0.7	> 1428	> 1000	
O=C1NC(=O)C(=Cc2ccc(OCCc3ccccc3)cc2)S1 [Example 4, 5-[4-(2-Phenylethoxy)phenylmethylene]-2,4-thiazolidinedione]	0.1	> 300	30	
CCCCCCOc1ccc(CC2SC(=O)NC2=O)cc1 (stereo not shown) [Example 6, 5-[(4-Hexyloxyphenyl)methyl]-2,4-thiazolidinedione]	0.1	100	10	6.71
O=C1NC(=O)C(Cc2ccc(OCC34CC5CC(CC(C5)C3)C4)cc2)S1 (stereo not shown) [Example 7, 5-[4-(3-Adamantylmethoxy)phenylmethyl]-2,4-thiazolidinedione]	0.1	300	30	
O=C1NC(=O)C(=Cc2ccc(OCc3cccc(Cl)c3)cc2)S1 [Example 8, 5-{4-[(3-Chlorophenyl)methoxy]phenylmethylene}-2,4-thiazolidinedione]	30	> 3	> 100	

The next lines start with results.

IC50 (MAO-B) [µM]	Ratio A/B (MAO-B)	IC50 (MAO-A) [µM]	SMILES	ED50 (AMPT test (ED50)) [mg/kg]
0.1	> 50000	> 5000	N#CCCCN1C(=O)SC(=Cc2cccc(OCc3ccccc3)c2)C1=O [Example 2, 2,4-Dioxo-5-[3-(phenylmethoxy)-phenylmethylene]-4-thiazolidinebutanenitrile]	
2	15	30	N#CCN1C(=O)SC(=Cc2ccc(OCCc3ccccc3)cc2)C1=O [Example 5, 2,4-Dioxo-5-[4-(2-phenylethoxy)phenylmethylene]-3-thiazolidineacetonitrile]	
100	< 1	30	N#CCCCN1C(=O)SC(=Cc2ccc(OCc3cccc(Cl)c3)cc2)C1=O [Example 9]	

Source: US5326770A, “Monoamine oxidase-B (MAO-B) inhibitory 5-substituted 2,4-thiazolidinediones useful in treating memory disorders of mammals” (priority 1992, dated 1994)
